Laboratory results reported in patent publication US8648198B2, “Phenylethanolamine-based NMDA receptor antagonists” (priority 2011, dated 2014).
Like-named read-outs stand apart in the source and are kept apart here.

Columns and labels:
[1] = target: T1, GluN1-1a (WT)/GluN2B (WT) (Rattus norvegicus, UniProt P35439+Q00960); assay: Ifenprodil dose-response, recordings from Xenopus oocytes; type: cell-based; conditions: mean ± s.d.
T1 construct: expressed in transfected cells; host or cells: Xenopus oocytes (per the earlier reading)

[2] = tested on: GluN1b ATD; assay: Isothermal titration calorimetry (ITC), GluN1b ATD alone; type: binding, Xenopus laevis; conditions: GluN1b ATD individually injected with ifenprodil
[3] = target: T2, GluN1-1b (F113S)/GluN2B (WT) (Rattus norvegicus, UniProt P35439+Q00960, F113S); assay: Ifenprodil dose-response, recordings from Xenopus oocytes; type: cell-based; conditions: mean ± s.d.
T2 construct: expressed in transfected cells; host or cells: Xenopus oocytes (per the earlier reading)

[4] = target: T3, GluN1-1b (WT)/GluN2B (WT) (Rattus norvegicus, UniProt P35439+Q00960); assay: as above; type: cell-based; conditions: mean ± s.d.
T3 construct: expressed in transfected cells; host or cells: Xenopus oocytes (per the earlier reading)

[5] = target: T4, GluN1-1b (WT)/GluN2B (Q110A) (Rattus norvegicus, UniProt P35439+Q00960, Q110A); assay: as above; type: cell-based; conditions: mean ± s.d.
T4 construct: expressed in transfected cells; host or cells: Xenopus oocytes (per the earlier reading)

[6] = target: T5, GluN1-1b (A75Q)/GluN2B (WT) (Rattus norvegicus, UniProt P35439+Q00960, A75Q); assay: as above; type: cell-based; conditions: mean ± s.d.
T5 construct: expressed in transfected cells; host or cells: Xenopus oocytes (per the earlier reading)

[7] = target: T6, GluN1/GluN2A receptors, GluN2A Met112Ile (Rattus norvegicus, UniProt P35439+Q00959, M112I); assay: Ifenprodil sensitivity of mutant GluN1/GluN2A receptors; type: cell-based; conditions: GluN2A Met112Ile in GluN1/GluN2A receptors
T6 construct: expressed in transfected cells
Text: Thus, the insensitivity of the GluN1/GluN2A receptors to phenylethanolamine may stem from a fundamental difference in a mode of subunit association between GluN1/GluN2A and GluN1/GluN2B at ATD.

[8] = target: T7, GluN1-4b (Leu341Cys)/GluN2B (Asp210Cys) (Rattus norvegicus, UniProt P35439+Q00960, D210C/L320C); assay: Ion channel activity of cysteine mutant receptors by TEVC (R1-R2 cross-link); type: cell-based; conditions: R1-R2 cross-link broken by application of DTT
T7 construct: expressed in transfected cells
Text: (§1) To further validate the physiological relevance of the hetero-dimeric assembly, cysteine mutants at the subunit interface were engineered using the ifenprodil-bound GluN1b/GluN2B ATD structure as a guide in a context of the intact rat GluN1-4b/GluN2B receptors so that they would form spontaneous disulphide bonds if the mutated residues are proximal to each others. Toward this end, two pairs of cysteine mutants, GluN1-4b (Asn70Cys)/GluN2B (Thr324Cys) and GluN1-4b (Leu341Cys)/GluN2B (Asp210Cys) were designed, which “locked” the R1-R1 and R1-R2 interfaces, respectively FIG. 12a-b). The mutant receptors were then expressed in a mammalian cell culture, and analyzed for formation of disulphide-linked oligomers in western blots. When mutant receptors of one subunit were expressed with wild-type receptors of the other, they gave rise to monomeric bands (110 KDa and 170 KDa for GluN1-4b and GluN2B, respectively; arrow 2 and 3) identical to the wild-type GluN1-4b/GluN2B receptors in both reducing and non-reducing condition. […]
(§2) To understand the functional effects of “locking” the R1-R1 and R1-R2 interactions in the GluN1b/GluN2B ATDs, the ion channel activities of the cysteine mutant receptors were measured by TEVC. […]

[9] = target: T8, GluN1-4b (Leu341Cys)/GluN2B (Asp210Cys) (Rattus norvegicus, UniProt P35439+Q00960); assay: as above; type: cell-based; conditions: R1-R2 cross-link, non-reducing, even at 3 μM ifenprodil
T8 construct: expressed in transfected cells
Text: as §1, §2

[10] = target: T9, GluN1-1b (WT)/GluN2B (I111S) (Rattus norvegicus, UniProt P35439+Q00960, I111S); assay: Ifenprodil dose-response, recordings from Xenopus oocytes; type: cell-based; conditions: mean ± s.d.
T9 construct: expressed in transfected cells; host or cells: Xenopus oocytes (per the earlier reading)

[11] = target: T10, GluN1-1b (L135N)/GluN2B (WT) (Rattus norvegicus, UniProt P35439+Q00960, L135N); assay: as above; type: cell-based; conditions: mean ± s.d.
T10 construct: expressed in transfected cells; host or cells: Xenopus oocytes (per the earlier reading)

[12] = target: T11, GluN1-1b (WT)/GluN2B (I111M) (Rattus norvegicus, UniProt P35439+Q00960, I111M); assay: as above; type: cell-based; conditions: mean ± s.d.
T11 construct: expressed in transfected cells; host or cells: Xenopus oocytes (per the earlier reading)

[13] = target: mixture of the GluN1b and GluN2B ATD proteins (Xenopus laevis (GluN1-4b ATD) / Rattus norvegicus (GluN2B ATD), UniProt A0A1L8F5J9+Q00960, E186G/INS190SKKRNYENLDQLSYDNKRGPK/N350Q/N61Q); assay: Isothermal titration calorimetry (ITC), direct binding to mixed ATD proteins; design: species or system Xenopus laevis GluN1-4b / Rattus Norvegicus GluN2B
[14] = target: T12, GluN1-4b (Asn70Cys)/GluN2B (Thr324Cys) (Rattus norvegicus, UniProt P35439+Q00960, N70C/T324C); assay: Ion channel activity of cysteine mutant receptors by TEVC (R1-R1 cross-link); type: cell-based
T12 construct: expressed in transfected cells
Text: as §1, §2

[15] = target: T13, GluN1-1b (WT)/GluN2B (I82S) (Rattus norvegicus, UniProt P35439+Q00960, I82S); assay: Ifenprodil dose-response, recordings from Xenopus oocytes; type: cell-based; conditions: mean ± s.d.
T13 construct: expressed in transfected cells; host or cells: Xenopus oocytes (per the earlier reading)

[16] = tested on: GluN2B ATD; assay: Isothermal titration calorimetry (ITC), GluN2B ATD alone; type: binding, Rattus Norvegicus; conditions: GluN2B ATD individually injected with ifenprodil

Sequence of mixture of the GluN1b and GluN2B ATD proteins (Q00960 31-394, stated change not applied, other chains not shown): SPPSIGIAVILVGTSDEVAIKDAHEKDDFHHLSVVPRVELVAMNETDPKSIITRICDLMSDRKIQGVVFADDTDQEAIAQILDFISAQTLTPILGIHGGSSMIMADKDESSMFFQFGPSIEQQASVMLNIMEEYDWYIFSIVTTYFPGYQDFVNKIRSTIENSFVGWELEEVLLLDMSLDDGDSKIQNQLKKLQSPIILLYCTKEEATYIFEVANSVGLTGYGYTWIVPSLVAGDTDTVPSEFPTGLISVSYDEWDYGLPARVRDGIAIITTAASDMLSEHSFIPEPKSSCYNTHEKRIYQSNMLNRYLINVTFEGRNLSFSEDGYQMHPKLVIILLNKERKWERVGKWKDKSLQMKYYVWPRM
T12 sequence (Q00960 27-1482 T324C, other chains not shown): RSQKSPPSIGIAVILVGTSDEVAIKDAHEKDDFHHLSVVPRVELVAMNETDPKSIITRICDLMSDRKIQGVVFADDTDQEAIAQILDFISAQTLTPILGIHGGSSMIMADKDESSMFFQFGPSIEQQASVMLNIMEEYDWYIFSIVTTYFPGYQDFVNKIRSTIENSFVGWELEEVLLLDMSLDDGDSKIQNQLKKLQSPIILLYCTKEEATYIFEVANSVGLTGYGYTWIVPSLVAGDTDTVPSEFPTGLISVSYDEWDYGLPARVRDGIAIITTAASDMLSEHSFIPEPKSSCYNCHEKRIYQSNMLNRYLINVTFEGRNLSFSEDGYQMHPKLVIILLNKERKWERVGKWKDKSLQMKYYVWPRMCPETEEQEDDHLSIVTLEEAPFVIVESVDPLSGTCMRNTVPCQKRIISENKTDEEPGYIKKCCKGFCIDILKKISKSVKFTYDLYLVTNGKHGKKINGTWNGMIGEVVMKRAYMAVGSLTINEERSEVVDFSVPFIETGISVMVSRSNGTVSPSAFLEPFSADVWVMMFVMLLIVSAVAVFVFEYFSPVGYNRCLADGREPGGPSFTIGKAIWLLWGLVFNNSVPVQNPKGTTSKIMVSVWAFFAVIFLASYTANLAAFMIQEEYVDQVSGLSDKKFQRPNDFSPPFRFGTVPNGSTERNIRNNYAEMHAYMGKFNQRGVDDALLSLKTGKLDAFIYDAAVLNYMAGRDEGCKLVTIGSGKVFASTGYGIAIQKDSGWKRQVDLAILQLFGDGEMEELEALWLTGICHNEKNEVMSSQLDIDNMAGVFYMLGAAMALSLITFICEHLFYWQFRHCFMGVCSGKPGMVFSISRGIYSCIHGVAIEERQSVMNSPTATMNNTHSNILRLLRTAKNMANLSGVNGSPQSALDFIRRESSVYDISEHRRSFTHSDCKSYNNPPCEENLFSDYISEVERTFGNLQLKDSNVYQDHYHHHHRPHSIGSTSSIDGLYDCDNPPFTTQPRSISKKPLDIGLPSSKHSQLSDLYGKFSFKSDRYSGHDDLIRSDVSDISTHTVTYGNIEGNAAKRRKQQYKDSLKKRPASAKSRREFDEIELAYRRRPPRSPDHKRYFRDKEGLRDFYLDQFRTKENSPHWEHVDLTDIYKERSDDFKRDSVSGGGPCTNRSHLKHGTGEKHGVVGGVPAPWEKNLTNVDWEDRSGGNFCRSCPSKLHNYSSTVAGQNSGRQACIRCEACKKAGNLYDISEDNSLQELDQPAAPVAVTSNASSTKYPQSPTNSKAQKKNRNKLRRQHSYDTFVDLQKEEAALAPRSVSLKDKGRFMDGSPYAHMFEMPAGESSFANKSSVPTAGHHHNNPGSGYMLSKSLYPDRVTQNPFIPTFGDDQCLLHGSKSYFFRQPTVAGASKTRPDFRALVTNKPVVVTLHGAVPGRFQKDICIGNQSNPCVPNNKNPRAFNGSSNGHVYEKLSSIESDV
T6 sequence (Q00959 23-1464 M112I, other chains not shown): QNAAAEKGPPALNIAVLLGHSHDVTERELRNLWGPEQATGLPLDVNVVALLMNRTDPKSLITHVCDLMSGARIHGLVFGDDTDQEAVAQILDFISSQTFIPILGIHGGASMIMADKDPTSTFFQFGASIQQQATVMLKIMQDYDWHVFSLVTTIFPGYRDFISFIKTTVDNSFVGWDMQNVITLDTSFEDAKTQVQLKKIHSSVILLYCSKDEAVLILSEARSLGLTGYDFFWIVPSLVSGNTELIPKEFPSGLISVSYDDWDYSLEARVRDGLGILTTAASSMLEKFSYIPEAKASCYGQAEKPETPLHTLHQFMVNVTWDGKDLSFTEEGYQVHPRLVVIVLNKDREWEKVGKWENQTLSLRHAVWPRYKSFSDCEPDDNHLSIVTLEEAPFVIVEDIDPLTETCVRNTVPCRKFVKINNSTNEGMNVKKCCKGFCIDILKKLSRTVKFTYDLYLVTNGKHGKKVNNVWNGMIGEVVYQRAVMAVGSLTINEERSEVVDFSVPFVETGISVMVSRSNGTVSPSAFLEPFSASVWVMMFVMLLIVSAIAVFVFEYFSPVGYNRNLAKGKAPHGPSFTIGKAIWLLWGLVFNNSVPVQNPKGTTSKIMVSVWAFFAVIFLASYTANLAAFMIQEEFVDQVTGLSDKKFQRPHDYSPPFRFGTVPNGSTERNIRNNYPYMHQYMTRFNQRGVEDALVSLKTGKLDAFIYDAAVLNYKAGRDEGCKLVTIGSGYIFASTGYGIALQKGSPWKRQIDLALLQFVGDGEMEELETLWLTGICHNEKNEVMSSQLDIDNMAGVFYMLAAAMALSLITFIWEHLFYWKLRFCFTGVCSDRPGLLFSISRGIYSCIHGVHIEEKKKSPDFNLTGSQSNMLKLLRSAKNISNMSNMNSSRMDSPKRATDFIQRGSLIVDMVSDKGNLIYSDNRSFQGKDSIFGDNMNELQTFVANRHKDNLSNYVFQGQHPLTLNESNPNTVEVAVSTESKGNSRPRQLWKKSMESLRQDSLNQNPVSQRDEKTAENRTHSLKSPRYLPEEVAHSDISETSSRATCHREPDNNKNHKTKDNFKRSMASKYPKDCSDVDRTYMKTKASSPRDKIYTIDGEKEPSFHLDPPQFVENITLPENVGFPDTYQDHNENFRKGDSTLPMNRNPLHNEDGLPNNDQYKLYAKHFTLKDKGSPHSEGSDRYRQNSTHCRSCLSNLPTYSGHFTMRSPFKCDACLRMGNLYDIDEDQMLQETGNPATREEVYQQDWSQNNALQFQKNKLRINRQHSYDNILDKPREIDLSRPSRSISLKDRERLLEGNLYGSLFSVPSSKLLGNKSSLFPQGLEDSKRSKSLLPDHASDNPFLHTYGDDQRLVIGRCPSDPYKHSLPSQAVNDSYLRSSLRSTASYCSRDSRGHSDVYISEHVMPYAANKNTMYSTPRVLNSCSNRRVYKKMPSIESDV
T7 sequence (Q00960 27-1482 D210C, other chains not shown): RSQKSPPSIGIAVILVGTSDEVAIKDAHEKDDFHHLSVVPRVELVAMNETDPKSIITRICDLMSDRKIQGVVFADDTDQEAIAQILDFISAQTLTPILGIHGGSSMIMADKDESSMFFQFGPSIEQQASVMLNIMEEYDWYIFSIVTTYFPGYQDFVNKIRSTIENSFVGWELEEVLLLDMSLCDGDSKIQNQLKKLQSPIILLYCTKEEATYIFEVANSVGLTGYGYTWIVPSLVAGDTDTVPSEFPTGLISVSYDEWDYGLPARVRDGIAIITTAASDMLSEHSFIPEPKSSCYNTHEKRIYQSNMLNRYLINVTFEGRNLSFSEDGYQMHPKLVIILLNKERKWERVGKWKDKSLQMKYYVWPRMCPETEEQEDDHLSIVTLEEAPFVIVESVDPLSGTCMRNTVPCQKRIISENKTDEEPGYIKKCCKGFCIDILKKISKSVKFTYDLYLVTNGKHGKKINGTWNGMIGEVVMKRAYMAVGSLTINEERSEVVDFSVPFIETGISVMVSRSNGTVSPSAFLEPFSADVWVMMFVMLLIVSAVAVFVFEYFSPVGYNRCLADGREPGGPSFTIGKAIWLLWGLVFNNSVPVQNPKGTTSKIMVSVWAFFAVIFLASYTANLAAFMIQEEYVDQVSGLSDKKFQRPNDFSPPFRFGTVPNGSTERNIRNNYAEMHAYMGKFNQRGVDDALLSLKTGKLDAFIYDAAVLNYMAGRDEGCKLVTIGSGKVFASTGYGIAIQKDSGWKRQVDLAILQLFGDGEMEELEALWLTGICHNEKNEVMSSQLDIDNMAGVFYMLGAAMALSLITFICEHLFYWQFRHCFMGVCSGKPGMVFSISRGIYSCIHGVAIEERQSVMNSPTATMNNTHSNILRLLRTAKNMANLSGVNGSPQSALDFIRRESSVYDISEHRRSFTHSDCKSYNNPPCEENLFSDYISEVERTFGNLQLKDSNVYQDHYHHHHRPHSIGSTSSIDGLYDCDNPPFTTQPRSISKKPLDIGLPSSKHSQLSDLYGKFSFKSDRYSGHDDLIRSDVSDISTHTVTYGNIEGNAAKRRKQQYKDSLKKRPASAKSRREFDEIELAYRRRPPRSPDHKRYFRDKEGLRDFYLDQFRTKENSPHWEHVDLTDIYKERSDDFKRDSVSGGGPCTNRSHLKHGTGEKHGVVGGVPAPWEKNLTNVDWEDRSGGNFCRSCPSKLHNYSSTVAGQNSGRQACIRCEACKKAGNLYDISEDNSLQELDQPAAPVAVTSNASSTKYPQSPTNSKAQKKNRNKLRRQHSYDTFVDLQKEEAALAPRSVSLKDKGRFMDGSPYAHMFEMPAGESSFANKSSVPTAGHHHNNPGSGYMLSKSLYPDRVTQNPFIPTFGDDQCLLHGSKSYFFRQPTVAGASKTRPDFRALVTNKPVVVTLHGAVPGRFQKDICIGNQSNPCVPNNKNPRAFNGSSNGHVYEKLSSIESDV

Kd ([13]; ITC, mixture of GluN1b and GluN2B ATD proteins, read-out: Kd) [µM]	SMILES	% inhibition [1] [%]	binding (heat) by ITC [2]	% inhibition [3] [%]	% inhibition [4] [%]	% inhibition [5] [%]	% inhibition [6] [%]	ifenprodil sensitivity [7]	ifenprodil sensitivity after breaking the disulphide cross-link [8]	ifenprodil inhibition [9]	% inhibition [10] [%]	% inhibition [11] [%]	% inhibition [12] [%]	Kd [13] [µM]	effect of the disulphide bond on ifenprodil sensitivity [14]	% inhibition [15] [%]	binding (heat) by ITC [16]
–	C[C@@H]([C@H](O)c1ccc(O)cc1)N1CCC(Cc2ccccc2)CC1 (racemic) [ifenprodil]	95.0 ± 2.5	no evidence of binding	87.7 ± 1.4	95.2 ± 2.0	91.5 ± 2.2	82.1 ± 1.4	did not confer	regain sensitivity to ifenprodil	almost completely abolished	69.3 ± 2.6	90.0 ± 3.7	93.0 ± 2.2	0.32	only a minor effect	55.7 ± 0.7	no evidence of binding
0.06	C[C@@H](CN1CCC(Cc2ccccc2)CC1)[C@@H](O)c1ccc(O)cc1 [Ro 25-6981]	–	–	–	–	–	–	–	–	–	–	–	–	–	–	–	–
